# Source: the supplement of paper PMC8024199
# ± gives the standard deviation of the averaged measurements.
# How the values were obtained:
# Experiment in all cases: drug sensitivity score (DSS) (DSS score); higher = more sensitive (stronger growth inhibition); extreme values may be limits of the assay
# [1] = test system: Ba/F3 P210-BCR-ABL1 RUNX1-/- (mouse)
# In short: (§1)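 A drug sensitivity score summarised each dose-response curve, with luminescence from CellTiter-Glo scaled between vehicle and positive-control wells. Values are the mean of two replicates. The cells were mouse Ba/F3 clones that were CRISPR/Cas9-edited at a target exon or were edited controls, exposed on pre-printed 384-well plates to a 528-compound library at five concentrations spanning a 10,000-fold range. Plates held 10,000 cells per well in RPMI with 10% FBS for 72 h at 37 °C and 5% CO2.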
# [2] = test system: Ba/F3 P210-BCR-ABL1 RUNX1-/mut (mouse)
# In short: as §1
# [3] = test system: Ba/F3 P210-BCR-ABL1 RUNX1wt/wt control (mouse)
# In short: as §1
smiles,measurement,setting,value
COc1ncc(-c2ccc3nccc(-c4ccnnc4)c3c2)cc1NS(=O)(=O)c1ccc(F)cc1F [Omipalisib],drug sensitivity score,[1],12.3 ± 1.4
same,drug sensitivity score,[2],11.9 ± 3.4
same,drug sensitivity score,[3],7.8 ± 0.28
Nc1cc(C(F)(F)F)c(-c2cc(N3CCOCC3)nc(N3CCOCC3)n2)cn1 [Buparlisib],drug sensitivity score,[1],8.6 ± 0.42
same,drug sensitivity score,[2],8.7 ± 2.3
same,drug sensitivity score,[3],4.5 ± 0.57
COC(=O)c1ccc2c(c1)[nH]c1ncnc(NCCCN3CCCCC3)c12 [UM729],drug sensitivity score,[1],4.1 ± 1.1
same,drug sensitivity score,[2],3.5 ± 4.5
same,drug sensitivity score,[3],0
O=C(Nc1ccc2[nH]nc(-c3ccncc3)c2c1)[C@@H]1CCN(CC(=O)N2CCN(c3ccc(-c4ncccn4)cc3)CC2)C1,drug sensitivity score,[1],17.8 ± 1.6
same,drug sensitivity score,[2],10.7 ± 1.4
same,drug sensitivity score,[3],5.1 ± 1.3
Cc1ccc(C(=O)Nc2ccc(Oc3cc4cnn(C)c4cc3-c3cn[nH]c3)c(F)c2)c(=O)n1-c1ccc(F)cc1 [Merestinib],drug sensitivity score,[1],0
same,drug sensitivity score,[2],0
same,drug sensitivity score,[3],0.05 ± 0.071
C=CC(=O)Nc1cccc(Oc2nc(Nc3ccc(N4CCN(C)CC4)cc3)nc3ccsc23)c1 [Olmutinib],drug sensitivity score,[1],0.65 ± 0.92
same,drug sensitivity score,[2],0.45 ± 0.64
same,drug sensitivity score,[3],0
CN1CCc2c(c3ccccc3n2Cc2ccc(C(=O)NO)cc2)C1 [Tubastatin A],drug sensitivity score,[1],4.05 ± 0.64
same,drug sensitivity score,[2],3.6
same,drug sensitivity score,[3],0
O=C(CCNC(=O)c1ccc(OC(F)(F)F)cc1)N[C@@H]1CCCc2ccccc21 [ML390],drug sensitivity score,[1],18.55 ± 0.071
same,drug sensitivity score,[2],19.6 ± 0.92
same,drug sensitivity score,[3],12.4 ± 0.49
Cc1ccc(C(=O)Nc2cccc(C(F)(F)F)c2)cc1Nc1nc(-c2cccnc2)nc2c1cnn2C [NVP-BHG712],drug sensitivity score,[1],7.45 ± 0.35
same,drug sensitivity score,[2],5.15 ± 0.071
same,drug sensitivity score,[3],5.4 ± 0.42
Cc1nc(=O)c2cc(CN(C)c3ccc(C(=O)N[C@@H](CCC(=O)O)C(=O)O)s3)ccc2[nH]1 [Raltitrexed],drug sensitivity score,[1],23.4 ± 2.2
same,drug sensitivity score,[2],20.3 ± 0.28
same,drug sensitivity score,[3],17.4 ± 0.57
CCN(CC)CCOc1ccc(C(=C(Cl)c2ccccc2)c2ccccc2)cc1 [Clomifene],drug sensitivity score,[1],6.5 ± 0.28
same,drug sensitivity score,[2],8 ± 1.3
same,drug sensitivity score,[3],6.35 ± 0.49
C=CCn1c(=O)c2cnc(Nc3ccc(N4CCN(C)CC4)cc3)nc2n1-c1cccc(C(C)(C)O)n1 [AZD1775],drug sensitivity score,[1],22.8 ± 3.5
same,drug sensitivity score,[2],20.8 ± 1.5
same,drug sensitivity score,[3],19.1 ± 0.14
O=C(CCCCCCC(=O)Nc1ccc([C@H]2O[C@@H](CSc3nc(-c4ccccc4)c(-c4ccccc4)o3)C[C@@H](c3ccc(CO)cc3)O2)cc1)NO [Tubacin],drug sensitivity score,[1],6.45 ± 1.2
same,drug sensitivity score,[2],6.2 ± 0.28
same,drug sensitivity score,[3],4.35 ± 0.78
CN[C@@H](C)C(=O)N[C@H](C(=O)N1CCC[C@H]1c1nc(C(=O)c2ccc(F)cc2)cs1)C1CCCCC1 [NVP-LCL161],drug sensitivity score,[1],26.4 ± 4.4
same,drug sensitivity score,[2],7.6 ± 8.5
same,drug sensitivity score,[3],23.6 ± 2.8
CN(C)C[C@@H]1CCn2cc(c3ccccc32)C2=C(C(=O)NC2=O)c2cn(c3ccccc23)CCO1 [Ruboxistaurin],drug sensitivity score,[1],9.7 ± 0.28
same,drug sensitivity score,[2],9.25 ± 2.2
same,drug sensitivity score,[3],7.7 ± 0.99
CC(C)NC[C@@H](C(=O)N1CCN(c2ncnc3c2[C@H](C)C[C@H]3O)CC1)c1ccc(Cl)cc1 [Ipatasertib],drug sensitivity score,[1],4.75 ± 0.92
same,drug sensitivity score,[2],3.4 ± 2.7
same,drug sensitivity score,[3],0.3 ± 0.42
CNc1nc(Nc2cn(C(C)(C)C#N)nc2C)ncc1C(F)(F)F [GNE-0877],drug sensitivity score,[1],0
same,drug sensitivity score,[2],0
same,drug sensitivity score,[3],0
Cc1cnc(NC(=O)Nc2cc(Br)c(C)cc2OC[C@@H]2CNCCO2)cn1 [Rabusertib],drug sensitivity score,[1],3.25 ± 1.6
same,drug sensitivity score,[2],3.3 ± 0.14
same,drug sensitivity score,[3],0.45 ± 0.49
Nc1ncnc2c1nc(Cl)n2[C@@H]1O[C@H](CO)[C@@H](O)[C@H]1O [8-chloro-adenosine],drug sensitivity score,[1],15.7 ± 1.1
same,drug sensitivity score,[2],13.8 ± 1.3
same,drug sensitivity score,[3],7.95 ± 0.21
CN(CC(=O)N(Cc1ccc(C2CCCCC2)cc1)c1ccc(C(=O)O)cc1)S(=O)(=O)c1c(F)c(F)c(F)c(F)c1F [SH-4-54],drug sensitivity score,[1],8.95 ± 1.1
same,drug sensitivity score,[2],8.35 ± 5.2
same,drug sensitivity score,[3],5.1 ± 0.14
CNC(=O)c1ccccc1Nc1cc(Nc2ccc(N3CCOCC3)cc2OC)ncc1C(F)(F)F [VS-4718],drug sensitivity score,[1],8.65 ± 0.49
same,drug sensitivity score,[2],7.65 ± 1.1
same,drug sensitivity score,[3],4.2 ± 0.28
CC(C)[C@@H](CS(=O)(=O)C(C)C)N1C(=O)[C@@](C)(CC(=O)O)C[C@H](c2cccc(Cl)c2)[C@H]1c1ccc(Cl)cc1 [AMG-232],drug sensitivity score,[1],12.7 ± 2.3
same,drug sensitivity score,[2],11.2 ± 1.6
same,drug sensitivity score,[3],3.7 ± 0.28
Cn1ncnc1[C@H]1c2n[nH]c(=O)c3cc(F)cc(c23)N[C@@H]1c1ccc(F)cc1 [Talazoparib],drug sensitivity score,[1],15 ± 5.5
same,drug sensitivity score,[2],16.2 ± 5
same,drug sensitivity score,[3],2.7 ± 0.14
CC(=O)OC[C@H]1O[C@@H]([S-])[C@H](OC(C)=O)[C@@H](OC(C)=O)[C@@H]1OC(C)=O.CCP(CC)CC.[Au+] [Auranofin],drug sensitivity score,[1],8.5 ± 0.85
same,drug sensitivity score,[2],6.15 ± 4.5
same,drug sensitivity score,[3],2.8 ± 0.71
C[C@H](Nc1ncnc2[nH]cnc12)c1cc2ccc(F)cc2nc1-c1ccccn1 [AMG319],drug sensitivity score,[1],0.15 ± 0.21
same,drug sensitivity score,[2],1.1 ± 1.6
same,drug sensitivity score,[3],0
O=C(O)C1(C(=O)O)CCC1.[NH2-].[NH2-].[Pt+2] [Carboplatin],drug sensitivity score,[1],6.65 ± 1.8
same,drug sensitivity score,[2],6.9 ± 1.8
same,drug sensitivity score,[3],3.45 ± 0.21
Cc1nc(-c2cn3c(n2)-c2ccc(-c4cnn(C(C)(C)C(N)=O)c4)cc2OCC3)n(C(C)C)n1 [Taselisib],drug sensitivity score,[1],4.65 ± 0.49
same,drug sensitivity score,[2],3.1 ± 4.1
same,drug sensitivity score,[3],0.4 ± 0.57
CCN(CC)CCCC(C)Nc1c2ccc(Cl)cc2nc2ccc(OC)cc12 (stereo unspecified) [Mepacrine],drug sensitivity score,[1],18.6 ± 2.2
same,drug sensitivity score,[2],19.7 ± 1.4
same,drug sensitivity score,[3],5.4
Cc1nc(C(=O)NCC(=O)O)c(O)c2ccc(Oc3ccccc3)cc12 [Roxadustat],drug sensitivity score,[1],0.6 ± 0.85
same,drug sensitivity score,[2],0.95 ± 1.3
same,drug sensitivity score,[3],0
CO[C@@H](C)Cn1c(=O)n(C)c2cnc3ccc(-c4cncc(C(C)(C)O)c4)cc3c21,drug sensitivity score,[1],12.9 ± 0.14
same,drug sensitivity score,[2],14.3 ± 1.4
same,drug sensitivity score,[3],10.25 ± 0.071
Clc1ccccc1C(c1ccccc1)(c1ccccc1)n1cccn1 [TRAM-34],drug sensitivity score,[1],0
same,drug sensitivity score,[2],0
same,drug sensitivity score,[3],0
Cc1ccc(=O)n(-c2ccccc2)c1 [Pirfenidone],drug sensitivity score,[1],0
same,drug sensitivity score,[2],0
same,drug sensitivity score,[3],0
Nc1nc(Nc2ccc3c(c2)CC[C@@H](N2CCCC2)CC3)nn1-c1cc2c(nn1)-c1ccccc1CCC2 [BGB324],drug sensitivity score,[1],7.3 ± 0.57
same,drug sensitivity score,[2],6.35 ± 1.2
same,drug sensitivity score,[3],5.65 ± 0.21
Cn1cc(CNCC2CCN(c3ncc(C(=O)NO)cn3)CC2)c2ccccc21 [Quisinostat],drug sensitivity score,[1],21.6 ± 1.3
same,drug sensitivity score,[2],17.95 ± 0.071
same,drug sensitivity score,[3],15.3 ± 0.28
CC(=O)c1cnc2ccc(-c3cc(Cl)c(O)c(Cl)c3)nc2c1N[C@H]1CC[C@H](CN(C)C)CC1 [OTS167],drug sensitivity score,[1],22.1 ± 0.78
same,drug sensitivity score,[2],20.4 ± 0.92
same,drug sensitivity score,[3],17 ± 0.42
O[C@H]1CC[C@H](Nc2ncc3nc(Nc4c(F)cc(F)cc4F)n([C@H]4CCOC4)c3n2)CC1 [Tanzisertib],drug sensitivity score,[1],1.55 ± 0.78
same,drug sensitivity score,[2],1 ± 1.4
same,drug sensitivity score,[3],0
c1cc(CN2CCCNCCNCCCNCC2)ccc1CN1CCCNCCNCCCNCC1 [Plerixafor],drug sensitivity score,[1],0.05 ± 0.071
same,drug sensitivity score,[2],0.05 ± 0.071
same,drug sensitivity score,[3],0
CCC(C)n1ncn(-c2ccc(N3CCN(c4ccc(OCC5COC(Cn6cncn6)(c6ccc(Cl)cc6Cl)O5)cc4)CC3)cc2)c1=O (stereo unspecified) [Itraconazole],drug sensitivity score,[1],3.8 ± 5.4
same,drug sensitivity score,[2],4.6 ± 6.5
same,drug sensitivity score,[3],7.1 ± 1.3
Cc1cnc(Nc2ccc(OCCN3CCCC3)cc2)nc1Nc1cccc(S(=O)(=O)NC(C)(C)C)c1 [Fedratinib],drug sensitivity score,[1],11.7 ± 2
same,drug sensitivity score,[2],10.4 ± 2.7
same,drug sensitivity score,[3],5.8
CC[C@@H]1C(=O)N(C)c2cnc(Nc3ccc(C(=O)N[C@H]4CC[C@H](N5CCN(CC6CC6)CC5)CC4)cc3OC)nc2N1C(C)C [Volasertib],drug sensitivity score,[1],11.15 ± 0.071
same,drug sensitivity score,[2],10.3 ± 0.42
same,drug sensitivity score,[3],5.9 ± 0.28
O=C(/C=C\n1cnc(-c2cc(C(F)(F)F)cc(C(F)(F)F)c2)n1)NNc1ccccn1 [Verdinexor],drug sensitivity score,[1],14.4 ± 0.92
same,drug sensitivity score,[2],13.3 ± 0.57
same,drug sensitivity score,[3],9.1 ± 0.42
CN1CCN(c2ccc(C(=O)Nc3n[nH]c4ccc(Cc5cc(F)cc(F)c5)cc34)c(NC3CCOCC3)c2)CC1 [Entrectinib],drug sensitivity score,[1],0.25 ± 0.35
same,drug sensitivity score,[2],0.65 ± 0.92
same,drug sensitivity score,[3],0
Cc1cc(F)c(C(=O)Nc2cccc(-c3nncn3C(C)C)n2)cc1-n1cnc(C2CC2)c1 [Selonsertib],drug sensitivity score,[1],0
same,drug sensitivity score,[2],0
same,drug sensitivity score,[3],0
Cc1cc(C(C)Nc2ccccc2)c2nc(N3CCOCC3)cc(=O)n2c1 (stereo unspecified) [TGX-221],drug sensitivity score,[1],2.7 ± 2.4
same,drug sensitivity score,[2],2.4 ± 3.1
same,drug sensitivity score,[3],0
COCC1(CO)C(=O)C2CCN1CC2 (stereo unspecified) [APR-246],drug sensitivity score,[1],1.05 ± 1.5
same,drug sensitivity score,[2],1.4 ± 2
same,drug sensitivity score,[3],0.35 ± 0.49
CS(=O)(=O)c1ccc(-c2cnc(N)c(C(=O)Nc3ccccc3)n2)cc1 [VE-821],drug sensitivity score,[1],5.55 ± 4.5
same,drug sensitivity score,[2],4.3 ± 4.8
same,drug sensitivity score,[3],1.8
NC(=O)c1cccc(-c2cccc(OC(=O)NC3CCCCC3)c2)c1 [URB597],drug sensitivity score,[1],0
same,drug sensitivity score,[2],0.15 ± 0.21
same,drug sensitivity score,[3],0.05 ± 0.071
